Key:
Test in all cases: SILAC proteomics / in-gel fluorescence, competition of probe 13-t labeling by 3a
[1] = molecular target: proteins of HEK293T cells transiently overexpressing caspase-6 (Homo sapiens, UniProt P06744)
[2] = molecular target: T1, proteins of HEK293T cells transiently overexpressing caspase-6 (Homo sapiens, UniProt P08243)
T1 sequence (P08243 1-561): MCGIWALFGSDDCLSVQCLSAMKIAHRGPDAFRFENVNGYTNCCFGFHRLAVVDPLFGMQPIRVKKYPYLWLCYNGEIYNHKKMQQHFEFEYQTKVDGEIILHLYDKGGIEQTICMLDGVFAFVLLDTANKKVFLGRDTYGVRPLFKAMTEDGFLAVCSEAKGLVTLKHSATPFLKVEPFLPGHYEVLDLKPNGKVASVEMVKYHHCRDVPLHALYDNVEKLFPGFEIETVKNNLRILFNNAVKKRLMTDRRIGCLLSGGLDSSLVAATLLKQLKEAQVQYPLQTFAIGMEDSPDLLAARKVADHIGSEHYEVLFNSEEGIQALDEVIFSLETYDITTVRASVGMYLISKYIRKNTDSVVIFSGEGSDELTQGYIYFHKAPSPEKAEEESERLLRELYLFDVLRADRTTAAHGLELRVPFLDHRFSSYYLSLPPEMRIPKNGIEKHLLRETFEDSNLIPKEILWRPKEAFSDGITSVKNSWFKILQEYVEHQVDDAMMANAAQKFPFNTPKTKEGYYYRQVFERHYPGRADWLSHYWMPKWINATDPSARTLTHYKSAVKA

[3] = molecular target: T2, proteins of HEK293T cells transiently overexpressing caspase-6 (Homo sapiens, UniProt P25789)
T2 sequence (P25789 1-261): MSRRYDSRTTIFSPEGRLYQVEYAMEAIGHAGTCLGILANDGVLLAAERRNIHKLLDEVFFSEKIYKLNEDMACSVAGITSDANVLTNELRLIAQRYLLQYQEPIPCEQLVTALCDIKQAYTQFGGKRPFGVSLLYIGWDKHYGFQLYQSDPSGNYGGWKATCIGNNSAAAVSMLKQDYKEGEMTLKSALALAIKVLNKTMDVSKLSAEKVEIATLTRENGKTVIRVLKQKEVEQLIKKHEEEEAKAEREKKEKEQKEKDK

[4] = molecular target: proteins of HEK293T cells transiently overexpressing caspase-6 (Homo sapiens, UniProt P52272); settings: Comp; protein HNRNPM P52272
[5] = molecular target: proteins of HEK293T cells transiently overexpressing caspase-6 (Homo sapiens, UniProt P60900); settings: Comp; protein PSMA6 P60900
[6] = molecular target: proteins of HEK293T cells transiently overexpressing caspase-6 (Homo sapiens, UniProt P61247); settings: Comp; protein RPS3A P61247
[7] = molecular target: T3, proteins of HEK293T cells transiently overexpressing caspase-6 (Homo sapiens, UniProt P62258); settings: Comp; protein YWHAE P62258
T3 sequence (P62258 1-255): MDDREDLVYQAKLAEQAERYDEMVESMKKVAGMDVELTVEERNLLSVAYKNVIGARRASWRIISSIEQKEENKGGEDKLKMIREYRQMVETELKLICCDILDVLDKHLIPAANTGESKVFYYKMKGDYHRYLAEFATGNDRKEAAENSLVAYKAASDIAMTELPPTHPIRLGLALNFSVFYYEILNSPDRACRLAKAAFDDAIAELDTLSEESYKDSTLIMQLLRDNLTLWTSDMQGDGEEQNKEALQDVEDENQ

[8] = molecular target: proteins of HEK293T cells transiently overexpressing caspase-6 (Homo sapiens, UniProt P63261); settings: Comp; protein ACTG1 P63261
[9] = molecular target: proteins of HEK293T cells transiently overexpressing caspase-6 (Homo sapiens, UniProt Q99460)
[10] = molecular target: T4, proteins of HEK293T cells transiently overexpressing caspase-6 (Homo sapiens, UniProt Q99832); settings: Comp; protein CCT7 Q99832
T4 sequence (Q99832 1-543): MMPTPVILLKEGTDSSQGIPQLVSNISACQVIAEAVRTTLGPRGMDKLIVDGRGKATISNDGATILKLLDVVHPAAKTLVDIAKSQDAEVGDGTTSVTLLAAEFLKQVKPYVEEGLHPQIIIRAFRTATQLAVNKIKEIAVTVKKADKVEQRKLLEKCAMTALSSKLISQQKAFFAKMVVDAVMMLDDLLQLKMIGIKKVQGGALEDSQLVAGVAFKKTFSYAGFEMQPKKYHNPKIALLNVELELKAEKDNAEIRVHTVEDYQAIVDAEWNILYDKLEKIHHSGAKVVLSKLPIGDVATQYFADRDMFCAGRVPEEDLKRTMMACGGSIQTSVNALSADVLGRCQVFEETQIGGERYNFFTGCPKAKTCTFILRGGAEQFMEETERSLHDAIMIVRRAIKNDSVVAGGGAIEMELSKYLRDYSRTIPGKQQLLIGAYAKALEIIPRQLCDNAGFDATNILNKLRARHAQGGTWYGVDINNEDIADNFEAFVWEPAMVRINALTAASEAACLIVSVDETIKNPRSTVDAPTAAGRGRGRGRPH

[11] = protein GPI (P06744), Exp Comp, analysis C6, p 0.0078, 8 peptides
[12] = protein ASNS (P08243), Exp Comp, analysis C6, p 0.1250, 4 peptides
[13] = protein PSMA4 (P25789), Exp Comp, analysis C6, p 0.0625, 5 peptides
[14] = protein PSMD1 (Q99460), Exp Comp, analysis C6, p 0.1250, 4 peptides

`C=CS(=O)(=O)N1C[C@H](C(=O)Nc2ccc(OC(F)(F)F)cc2)C[C@@H](c2ccccc2)C1` [3a] showed an enrich.exp.med ([1]; Comp, protein GPI P06744) of 1.157, an enrich.exp.med.lin [1, 11] of 2.229 and an enrich.exp.med.log2 [1, 11] of 1.157. For the same compound, the enrich.exp.med ([2]; Comp, protein ASNS P08243) was 1.12, the enrich.exp.med.lin [2, 12] was 2.174 and the enrich.exp.med.log2 [2, 12] was 1.12. The enrich.exp.med ([3]; Comp, protein PSMA4 P25789) was 0.9624, the enrich.exp.med.lin [3, 13] was 1.949 and the enrich.exp.med.log2 [3, 13] was 0.9624. It also gave an enrich.exp.med [4] of 0.6442, an enrich.exp.med [5] of 0.7694 and an enrich.exp.med [6] of 0.7684. The enrich.exp.med [7] was 0.6349, the enrich.exp.med [8] was 0.7588 and the enrich.exp.med ([9]; Comp, protein PSMD1 Q99460) was 0.9459. For the same compound, the enrich.exp.med.lin [9, 14] was 1.926, the enrich.exp.med.log2 [9, 14] was 0.9459 and the enrich.exp.med [10] was 0.6137.
